ChEMBL document CHEMBL5523692, “Discovery of novel biaryl benzoxazepinones as dual-mode receptor-interacting protein kinase-1 (RIPK1) inhibitors” (Bioorg Med Chem, 2024)
Calls of active or inactive are those of the source. The calls are words filed in the database; no cut-off is given here.

Tests used:
HT-29 [1] = test: Anti-necroptic activity against human HT-29 cells assessed as cell viability pretreated with compound followed by TNF-alpha/Smac mimetic/Z-VAD-FMK stimulation for 16 hrs by Cell Titer Glo assay; assay type: functional, cell-based
[2] = Cytotoxicity against human HT-29 cells by Cell Titer Glo assay; assay type: toxicity, cell-based
Mus musculus [3] = test: (§1) Anti-necroptic activity in TNF-alpha/Z-VAD-FMK-induced SIRS C57BL/6J mouse model assessed as survival rate at 2.5 mg/kg, po pre-administered via gavage for 1 hr followed by […] of Z-VAD-FMK stimulation for 15 mins and subsequent TNF-alpha stimulation for 45 mins and re-current […] of Z-VAD-FMK stimulation and measured after 60 hrs relative to control; assay type: functional; settings: 62 h, time 3720 min
HT-29 [4] = test: Anti-necroptic activity against human HT-29 cells assessed as cell viability pretreated with compound followed by TNF-alpha/Smac mimetic/Z-VAD-FMK stimulation for 12 hrs by Cell Titer Glo assay; assay type: functional, cell-based; settings: dose 0.39-50 nM
HT-29 [5] = test: Anti-necroptic activity against human HT-29 cells assessed as cell viability pretreated with compound followed by TNF-alpha/Cycloheximide/Z-VAD-FMK stimulation for 16 hrs by Cell Titer Glo assay; assay type: functional, cell-based; settings: dose 0.39-50 nM
L-292 = test: Anti-necroptic activity against mouse […] cells assessed as cell viability pretreated with compound followed by TNF-alpha/Z-VAD-FMK stimulation for 12 hrs by Cell Titer Glo assay; assay type: functional, cell-based; settings: dose 0.078-10 µM
HT-29 [6] = test: Anti-necroptic activity against human HT-29 cells assessed as cell viability upto 10 uM pretreated with compound followed by TNF-alpha/Smac mimetic stimulation for 24 hrs by Cell Titer Glo assay; assay type: functional, cell-based
HT-29 [7] = test: Anti-necroptic activity against human HT-29 cells assessed as cell viability upto 10 uM pretreated with compound followed by TNF-alpha/Cycloheximide stimulation for 36 hrs by Cell Titer Glo assay; assay type: functional, cell-based
[8] = target: T1, Receptor-interacting serine/threonine-protein kinase 1 (Homo sapiens) (UniProt Q13546); test: Inhibition of RIPK1 phosphorylation in human HT-29 cells at 10 nM preincubated for 6 hrs followed by TSZ stimulation by Western blot analysis relative to control; assay type: cell-based
T1 sequence (whole entry): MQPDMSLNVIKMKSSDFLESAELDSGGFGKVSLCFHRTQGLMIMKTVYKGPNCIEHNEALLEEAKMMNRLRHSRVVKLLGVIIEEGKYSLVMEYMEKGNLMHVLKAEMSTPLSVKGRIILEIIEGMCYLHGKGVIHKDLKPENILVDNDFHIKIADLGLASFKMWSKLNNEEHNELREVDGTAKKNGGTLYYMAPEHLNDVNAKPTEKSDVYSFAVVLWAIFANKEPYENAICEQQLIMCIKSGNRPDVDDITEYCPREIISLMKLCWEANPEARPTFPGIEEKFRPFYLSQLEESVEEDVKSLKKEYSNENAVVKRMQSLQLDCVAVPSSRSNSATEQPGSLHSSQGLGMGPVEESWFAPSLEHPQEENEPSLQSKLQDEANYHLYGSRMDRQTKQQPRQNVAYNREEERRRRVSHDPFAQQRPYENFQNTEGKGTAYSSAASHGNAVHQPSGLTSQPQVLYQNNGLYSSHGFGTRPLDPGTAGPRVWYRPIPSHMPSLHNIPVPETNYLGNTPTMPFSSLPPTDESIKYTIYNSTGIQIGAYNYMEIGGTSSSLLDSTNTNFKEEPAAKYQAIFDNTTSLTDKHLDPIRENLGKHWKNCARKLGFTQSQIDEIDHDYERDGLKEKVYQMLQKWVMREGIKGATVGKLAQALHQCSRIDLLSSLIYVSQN

[9] = target: T1, Receptor-interacting serine/threonine-protein kinase 1 (Homo sapiens); test: Inhibition of RIPK1 in human HT-29 cells assessed as decrease in RIPK3 phosphorylation at 10 nM preincubated for 6 hrs followed by TSZ stimulation by Western blot analysis relative to control; assay type: cell-based
[10] = target: T1, Receptor-interacting serine/threonine-protein kinase 1 (Homo sapiens); test: Inhibition of RIPK1 in human HT-29 cells assessed as decrease in MLKL phosphorylation at 10 nM preincubated for 6 hrs followed by TSZ stimulation by Western blot analysis relative to control; assay type: cell-based
[11] = target: T1, Receptor-interacting serine/threonine-protein kinase 1 (Homo sapiens); test: Inhibition of RIPK1 phosphorylation in human HT-29 cells assessed as decrease in necrosomes development at 10 nM incubated for 6 hrs by Western blot analysis; assay type: cell-based
Mus musculus [12] = test: as §1, with “decrease in hypothermia” for “survival rate”, “2.5 to 10” for “2.5”, “stimulation” for “stimulation and”, “2 to 3” for “60”, “post- TNF-alpha stimulation” for “relative to control”; assay type: functional, organism-based; settings: dose 2.5-10 mg/kg, time 240-300 min
Mus musculus [13] = test: as §1, with “stimulation” for “stimulation and”, “4” for “60”, “hrs post- TNF-alpha stimulation” for “hrs”; assay type: functional; settings: 6 h, time 360 min
Mus musculus [14] = test: as §1, with “5” for “2.5”, “stimulation” for “stimulation and”, “4” for “60”, “hrs post- TNF-alpha stimulation” for “hrs”; assay type: functional; settings: 6 h, time 360 min
Mus musculus [15] = test: as §1, with “10” for “2.5”, “stimulation” for “stimulation and”, “4” for “60”, “hrs post- TNF-alpha stimulation” for “hrs”; assay type: functional; settings: 6 h, time 360 min
Mus musculus [16] = test: as §1, with “decrease in serum IL-1beta level” for “survival rate”, “2.5 to 10” for “2.5”, “stimulation” for “stimulation and”, “4” for “60”, “post- TNF-alpha stimulation by ELISA” for “relative to control”; assay type: functional, organism-based; settings: dose 2.5-10 mg/kg, time 360.0 min
Mus musculus [17] = test: as §1, with “decrease in serum IL-6 level” for “survival rate”, “2.5 to 10” for “2.5”, “stimulation” for “stimulation and”, “4” for “60”, “post- TNF-alpha stimulation by ELISA” for “relative to control”; assay type: functional, organism-based; settings: dose 2.5-10 mg/kg, time 360.0 min
[18] = target: T1, Receptor-interacting serine/threonine-protein kinase 1 (Homo sapiens); test: Inhibition of RIPK1 phosphorylation in human HT-29 cells preincubated for 6 hrs followed by TSZ stimulation by Western blot analysis; assay type: cell-based; settings: dose 1-10 nM
[19] = target: T1, Receptor-interacting serine/threonine-protein kinase 1 (Homo sapiens); test: Inhibition of RIPK1 in human HT-29 cells assessed as decrease in RIPK3 phosphorylation preincubated for 6 hrs followed by TSZ stimulation by Western blot analysis; assay type: cell-based; settings: dose 1-10 nM
[20] = target: T1, Receptor-interacting serine/threonine-protein kinase 1 (Homo sapiens); test: Inhibition of RIPK1 in human HT-29 cells assessed as decrease in MLKL phosphorylation preincubated for 6 hrs followed by TSZ stimulation by Western blot analysis relative to control; assay type: cell-based; settings: dose 1-10 nM

Row | SMILES | EC50 (HT-29 [1]) [nM] | CC50 [2] [µM] | other results
1 | CN1C(=O)[C@@H](NC(=O)c2n[nH]c(Cc3ccccc3)n2)COc2ccc(-c3ccccc3C#N)cc21 | 3 | > 100 | 
2 | CN1C(=O)[C@@H](NC(=O)c2n[nH]c(Cc3ccccc3)n2)COc2ccc(-c3cccc(O)c3)cc21 | 11.7 | > 100 | 
3 | CN1C(=O)[C@@H](NC(=O)c2n[nH]c(Cc3ccccc3)n2)COc2ccc(-c3ccoc3)cc21 | 3.4 | > 100 | 
4 | CN1C(=O)[C@@H](NC(=O)c2n[nH]c(Cc3ccccc3)n2)COc2ccc(-c3ccc(-c4ccccc4)cc3)cc21 | 32.9 | > 100 | 
5 | CN1C(=O)[C@@H](NC(=O)c2n[nH]c(Cc3ccccc3)n2)COc2ccc(-c3ccco3)cc21 | 3.8 | > 100 | 
6 | Cc1cccc(C)c1-c1ccc2c(c1)N(C)C(=O)[C@@H](NC(=O)c1n[nH]c(Cc3ccccc3)n1)CO2 | > 100 | > 100 | 
7 | CN1C(=O)[C@@H](NC(=O)c2n[nH]c(Cc3ccccc3)n2)COc2ccc(-c3cccc(F)c3)cc21 | 8.8 | > 100 | 
8 | CN1C(=O)[C@@H](NC(=O)c2n[nH]c(Cc3ccccc3)n2)COc2ccc(-c3cccc(C#N)c3)cc21 | 8.3 | > 100 | 
9 | CN1C(=O)[C@@H](NC(=O)c2n[nH]c(Cc3ccccc3)n2)COc2ccc(-c3ccccc3F)cc21 | 7.6 | > 100 | 
10 | CN1C(=O)[C@@H](NC(=O)c2nnc(Cc3ccccc3)[nH]2)COc2ccccc21 [GSK2982772] | 2.9 | > 100 | survival at 2.5 mg/kg (Mus musculus [3]): 50%
11 | CN1C(=O)[C@@H](NC(=O)c2n[nH]c(Cc3ccccc3)n2)COc2ccc(-c3ccccc3-c3ccccc3)cc21 | > 100 | > 100 | 
12 | CN1C(=O)[C@@H](NC(=O)c2n[nH]c(Cc3ccccc3)n2)COc2ccc(-c3ccccc3O)cc21 | 60 | > 100 | 
13 | CN1C(=O)[C@@H](NC(=O)c2n[nH]c(Cc3ccccc3)n2)COc2ccc(-c3ccc(C#N)cc3)cc21 | 1.7 | > 100 | Activity (HT-29 [4]): Dose-Dependent Effect; Activity (HT-29 [5]): Dose-Dependent Effect; Activity (L-292): Dose-Dependent Effect; Activity (HT-29 [6]): inactive; Activity (HT-29 [7]): inactive; inhibition [8]: 100%; inhibition [9]: 100%; inhibition [10]: 100%; inhibition [11]: Active; Activity (Mus musculus [12]): Active; survival at 2.5 mg/kg (Mus musculus [13]): 66%; survival at 5 mg/kg (Mus musculus [14]): 91%; survival at 10 mg/kg (Mus musculus [15]): 100%; Activity (Mus musculus [16]): Active; Activity (Mus musculus [17]): Active; inhibition [18]: Dose-Dependent Effect; inhibition [19]: Dose-Dependent Effect; inhibition [20]: Dose-Dependent Effect
14 | CN1C(=O)[C@@H](NC(=O)c2n[nH]c(Cc3ccccc3)n2)COc2ccc(-c3cccc(Cl)c3)cc21 | 56.8 | > 100 | 
15 | COc1ccc(-c2ccc3c(c2)N(C)C(=O)[C@@H](NC(=O)c2n[nH]c(Cc4ccccc4)n2)CO3)cc1 | 3.5 | > 100 | 
16 | CN1C(=O)[C@@H](NC(=O)c2n[nH]c(Cc3ccccc3)n2)COc2ccc(-c3ccncc3)cc21 | 3.3 | > 100 | 
17 | COc1cccc(-c2ccc3c(c2)N(C)C(=O)[C@@H](NC(=O)c2n[nH]c(Cc4ccccc4)n2)CO3)c1 | 3 | > 100 | 
18 | Cc1ccccc1-c1ccc2c(c1)N(C)C(=O)[C@@H](NC(=O)c1n[nH]c(Cc3ccccc3)n1)CO2 | 82.7 | > 100 | 
19 | Cc1ccc(-c2ccc3c(c2)N(C)C(=O)[C@@H](NC(=O)c2n[nH]c(Cc4ccccc4)n2)CO3)cc1 | 10.9 | > 100 | 
20 | CN1C(=O)[C@@H](NC(=O)c2n[nH]c(Cc3ccccc3)n2)COc2ccc(-c3ccc(O)cc3)cc21 | 29.9 | > 100 | 
21 | COc1ccccc1-c1ccc2c(c1)N(C)C(=O)[C@@H](NC(=O)c1n[nH]c(Cc3ccccc3)n1)CO2 | 10 | > 100 | 
22 | CN1C(=O)[C@@H](NC(=O)c2n[nH]c(Cc3ccccc3)n2)COc2ccc(-c3ccc(F)cc3)cc21 | 9.8 | > 100 | 
23 | CN1C(=O)[C@@H](NC(=O)c2n[nH]c(Cc3ccccc3)n2)COc2ccc(-c3ccccc3)cc21 | 8.3 | > 100 | 
24 | CN1C(=O)[C@@H](NC(=O)c2n[nH]c(Cc3ccccc3)n2)COc2ccc(-c3cccc(-c4ccccc4)c3)cc21 | 27.3 | > 100 | 
25 | CN1C(=O)[C@@H](NC(=O)c2n[nH]c(Cc3ccccc3)n2)COc2ccc(-c3cncnc3)cc21 | 5.8 | > 100 | 
26 | Cc1cccc(-c2ccc3c(c2)N(C)C(=O)[C@@H](NC(=O)c2n[nH]c(Cc4ccccc4)n2)CO3)c1 | 14.1 | > 100 | 
27 | CN1C(=O)[C@@H](NC(=O)c2n[nH]c(Cc3ccccc3)n2)COc2ccc(-c3ccccc3Cl)cc21 | 20.3 | > 100 | 
28 | CN1C(=O)[C@@H](NC(=O)c2n[nH]c(Cc3ccccc3)n2)COc2ccc(-c3ccc(Cl)cc3)cc21 | 12.5 | > 100 | 
